Assay results as given in the NIST ThermoML archive (doi:10.1021/je200609g).

Test: xn = mol fraction of the nth substance listed
Settings: 101 kPa, Liquid; for mass density: Vibrating tube method

CCn1cc[n+](C)c1.O=S(=O)([O-])C(F)(F)F [1-ethyl-3-methylimidazolium trifluoromethanesulfonate] + C1CCOC1
Settings | mass density, 278.15 K [kg/m3] | mass density, 288.15 K [kg/m3] | mass density, 298.15 K [kg/m3] | mass density, 308.15 K [kg/m3] | mass density, 318.15 K [kg/m3] | speed of sound, 278.15 K [m/s] | speed of sound, 288.15 K [m/s] | speed of sound, 298.15 K [m/s] | speed of sound, 308.15 K [m/s] | speed of sound, 318.15 K [m/s]
x1 = 0.051 | 964.39 | 953.89 | 943.29 | 932.59 | 921.76 | 1362.7 | 1316.9 | 1271.7 | 1227 | 1182.8
x1 = 0.1 | 1013.94 | 1003.61 | 993.23 | 982.77 | 972.18 | – | 1318.7 | 1275.5 | 1233.3 | 1191.4
x1 = 0.1503 | 1059.68 | 1049.68 | 1039.61 | 1029.5 | 1019.22 | – | 1325.4 | 1285.5 | 1246.5 | 1207.2
x1 = 0.2001 | 1098.67 | 1088.88 | 1079.04 | 1069.18 | 1059.3 | 1373.3 | 1334.8 | 1297.4 | 1260.7 | 1224.5
x1 = 0.3001 | 1166.19 | 1155.19 | 1145.24 | 1135.87 | 1126.45 | 1387.7 | 1353.8 | 1320.8 | 1288.7 | 1257.1
x1 = 0.3992 | 1217.18 | 1207.94 | 1198.76 | 1189.62 | 1180.52 | 1403.5 | 1372.7 | 1342.8 | 1313.3 | 1284.5
x1 = 0.4995 | 1261.1 | 1252.06 | 1243.08 | 1234.16 | 1225.28 | 1414.7 | 1388 | 1361.4 | 1335.5 | 1309.7
x1 = 0.599 | 1297.75 | 1288.87 | 1280.05 | 1271.3 | 1262.63 | 1432.5 | 1405.8 | 1379.9 | 1354.5 | 1329.9
x1 = 0.7014 | 1330 | 1321.24 | 1312.54 | 1303.92 | 1295.36 | 1446.6 | 1421.4 | 1396.8 | 1372.6 | 1349
x1 = 0.7965 | 1356.21 | 1347.55 | 1338.96 | 1330.44 | 1321.98 | 1459 | 1434.6 | 1410.8 | 1387.6 | 1365.1
x1 = 0.849 | 1369.15 | 1360.54 | 1352 | 1343.53 | 1335.11 | 1465.4 | 1441.4 | 1418.1 | 1395.2 | 1372.9
x1 = 0.899 | 1380.34 | 1371.78 | 1363.27 | 1354.82 | 1346.41 | 1470.5 | 1446.4 | 1423.1 | 1400.3 | 1378.1
x1 = 0.9511 | 1391.34 | 1382.83 | 1374.36 | 1365.93 | 1357.57 | 1476 | 1452.3 | 1429.2 | 1406.8 | 1384.9

CCn1cc[n+](C)c1.O=S(=O)([O-])C(F)(F)F [1-ethyl-3-methylimidazolium trifluoromethanesulfonate] + CC(C)O
speed of sound [m/s], Sing-around technique in a fixed-path interferometer
Settings | 278.15 K | 288.15 K | 298.15 K | 308.15 K | 318.15 K | 328.15 K
x1 = 0.0499 | 1220.6 | 1188.2 | 1156.4 | 1124.5 | 1092.5 | 1060.1
x1 = 0.0996 | 1233.3 | 1203.2 | 1173.6 | 1143.9 | 1114.1 | 1084.3
x1 = 0.15 | 1249.7 | 1221.4 | 1193.3 | 1165.3 | 1137.2 | 1109
x1 = 0.2001 | 1267.9 | 1240.6 | 1213.7 | 1186.8 | 1159.9 | 1133
x1 = 0.2994 | 1305.6 | 1279.7 | 1254.2 | 1228.8 | 1203.6 | 1178.5
x1 = 0.4004 | 1341.7 | 1316.5 | 1291.8 | 1267.5 | 1243.3 | 1219.5
x1 = 0.4997 | 1373.6 | 1348.8 | 1324.7 | 1301 | 1277.6 | 1254.6
x1 = 0.5999 | 1401.7 | 1377.3 | 1353.6 | 1330.4 | 1307.7 | 1285.2
x1 = 0.7019 | 1426.3 | 1402.6 | 1379.4 | 1356.7 | 1334.4 | 1312.6
x1 = 0.7987 | 1447 | 1423.4 | 1400.5 | 1378.1 | 1356.2 | 1334.8
x1 = 0.8519 | 1458 | 1434.1 | 1411.2 | 1388.7 | 1366.7 | 1345.2
x1 = 0.8989 | 1465.9 | 1442.5 | 1419.8 | 1397.5 | 1375.9 | 1354.6
x1 = 0.9462 | 1474.3 | 1450.8 | 1428.1 | 1406 | 1384.3 | 1363.1

mass density [kg/m3]
Settings | 278.15 K | 288.15 K | 298.15 K | 308.15 K | 318.15 K | 328.15 K
x1 = 0.0499 | 868.82 | 860.62 | 852.27 | 843.73 | 834.95 | 825.89
x1 = 0.0996 | 929.8 | 921.53 | 913.15 | 904.62 | 895.92 | 887.02
x1 = 0.15 | 984.2 | 975.84 | 967.41 | 958.87 | 950.21 | 941.42
x1 = 0.2001 | 1032.07 | 1023.66 | 1015.19 | 1006.67 | 998.06 | 989.35
x1 = 0.2994 | 1111.77 | 1103.29 | 1094.81 | 1086.3 | 1077.77 | 1069.21
x1 = 0.4004 | 1177.58 | 1169.07 | 1160.58 | 1152.12 | 1143.67 | 1135.22
x1 = 0.4997 | 1231.42 | 1222.91 | 1214.45 | 1206.03 | 1197.63 | 1189.27
x1 = 0.5999 | 1276.64 | 1268.13 | 1259.68 | 1251.27 | 1242.91 | 1234.58
x1 = 0.7019 | 1315.15 | 1306.65 | 1298.2 | 1289.82 | 1281.48 | 1273.2
x1 = 0.7987 | 1347.13 | 1338.64 | 1330.2 | 1321.82 | 1313.5 | 1305.24
x1 = 0.8519 | 1362.88 | 1354.39 | 1345.96 | 1337.58 | 1329.26 | 1320.99
x1 = 0.8989 | 1375.94 | 1367.46 | 1359.02 | 1350.65 | 1342.33 | 1334.07
x1 = 0.9462 | 1388.37 | 1379.89 | 1371.46 | 1363.08 | 1354.76 | 1346.5
